Reference: the NIST ThermoML archive (doi:10.1021/je7003758)
Numbers after ± are expanded uncertainties.

Settings: 298.15 K; 100 kPa; Liquid

SMILES | mass density [kg/m3]
ClCCCl [1,2-dichloroethane] | 1245.5 ± 0.6
ClCCCCCl [1,4-dichlorobutane] | 1133.7 ± 3.4
ClCCCCCCCl [1,6-dichlorohexane] | 1063.8 ± 1.4
CCCCCl [1-chlorobutane] | 880.6 ± 0.3
CCCCCCCl [1-chlorohexane] | 873.1 ± 0.6
CCCCCCCCCl [1-chlorooctane] | 868.8 ± 1.3

Same assay, conditions: 298.15 K; 10000 kPa; Liquid

SMILES | mass density [kg/m3]
ClCCCl [1,2-dichloroethane] | 1255.1 ± 1
